Laboratory results published in BindingDB's records for doi:10.1021/acsmedchemlett.9b00381 (Dana-Farber Cancer Institute, 2019).
pIC50: −log10 of the molar value.

Experiments:
[1] = Inhibition of EGFR double T790M/L858R mutant (unknown origin) expressed in mouse Ba/F3 cells assessed as reduction in cell growth incubated for 72 hrs in presence of 1 ug/ml Cetuximab by celltiter-glo luminescent cell viability assay
[2] = Inhibition of EGFR L858R mutant (unknown origin) expressed in mouse Ba/F3 cells assessed as reduction in cell growth incubated for 72 hrs in presence of 1 ug/ml Cetuximab by celltiter-glo luminescent cell viability assay
[3] = Inhibition of EGFR triple T790M/L858R/C797S mutant (unknown origin) expressed in mouse Ba/F3 cells assessed as reduction in cell growth incubated for 72 hrs in presence of 1 ug/ml Cetuximab by celltiter-glo luminescent cell viability assay
[4] = Inhibition of EGFR (unknown origin) expressed in mouse Ba/F3 cells assessed as reduction in cell growth incubated for 72 hrs in presence of 1 ug/ml Cetuximab by celltiter-glo luminescent cell viability assay

Compound | pIC50 [1] | pIC50 [2] | pIC50 [3] | pIC50 [4]
CN1CCN(c2ccc(Oc3ccc4c(c3)C(=O)N(Cc3ccccc3)c3cc(F)ccc3N4)cc2)CC1 | 6.44 | 5.57 | 6.70 | 5.49
O=C1c2cc(-c3ccc(N4CCNCC4)cc3)ccc2Nc2ccc(F)cc2N1Cc1ccccc1 | 6.11 | 5.43 | 6.03 | 5.39
